Data taken from patent publication EP0523356B1, “Burst-test” (Orpegen Medizinisch-Molekularbiologische …, priority 1991, dated 1993).

Tested on: Granulozyten
Assay: Oxidative burst test in heparinised whole blood (dihydrorhodamine 123, flow cytometry)
Format: cell-based, menschlichen
Conditions: Erwartungswerte, 10 + 10 Minuten Inkubation at 37°C, heparinised whole blood 100 µl
Procedure: Frisch entnommenes, heparinisiertes Vollblut wird gemixt (Vortex) und auf dem Boden eines 5 ml-Röhrchens aliquotiert, wobei pro Ansatz 100 µl verwendet werden. Durch EDTA oder Citrat stabilisiertes Vollblut ist für das Verfahren nicht sonderlich geeignet. Die Blutproben werden vor der Zugabe der Bakterien ca. 15 Minuten im Eiswasserbad inkubiert, um auf 0°C abgekühlt zu sein.
Die vorgekühlten E.coli-Bakterien (1 x 10^9 pro ml) werden gut gemixt (Vortex) und 20 µl pro Ansatz zum Vollblut pipettiert ("high control", Röhrchen 1). Gegebenenfalls können 20 µl N-Formyl-Met-Leu-Phe-Gebrauchslösung als "low control" in ein weiteres Röhrchen (Röhrchen 2) gegeben werden (Endkonzentration 10^-6 mol/l). 20 µl Waschlösung (phosphatgepufferte Salzlösung ohne Calcium^2+ und Magnesium^2+ mit 0,02 % EDTA) werden als Negativkontrolle in ein drittes Röhrchen (Röhrchen 3) gegeben.
Alle Röhrchen werden nochmals gemixt (Vortex) und 10 Minuten lang bei 37°C im Wasserbad unter starkem Schütteln inkubiert (bei einer kinetischen Messung können auch längere Inkubationszeiten erforderlich sein).
Nach 10 Minuten erfolgt die Zugabe von 20 µl frisch angesetzter Substratlösung und Mischen (Vortex) (Endkonzentration 0,2 µg Dihydrorhodamin 123 auf 100 µl Körperflüssigkeit). […]

With `CSCC[C@H](NC=O)C(=O)N[C@@H](CC(C)C)C(=O)N[C@@H](Cc1ccccc1)C(=O)O` [N-Formyl-Met-Leu-Phe] the “mittlere Fluoreszenzintensität (4 Dekaden, 1024 Kanäle)” value (green fluorescence (FL1) of the oxidising cells, stimulant: 20 µl E.coli 1 x 10^9 pro ml or N-Formyl-Met-Leu-Phe Endkonzentration 10^-6 mol/l) was 10-100 and the “% oxidierende Granulozyten” value (stimulant: 20 µl E.coli 1 x 10^9 pro ml or N-Formyl-Met-Leu-Phe Endkonzentration 10^-6 mol/l6 mol/l) was 1-5%.
